Reference: patent US9814236B2, “Agricultural or horticultural chemical, method of controlling plant diseases, and product for controlling plant diseases” (Kureha Corporation, priority 2013, dated 2017)
Read-outs that look alike come from different tables or passages of the source.

Assays:
Assay type in all cases: cell-based
[1] = tested on: gray mold disease (Botrytis cinerea); test: In vitro antimicrobial activity test on PDA agar plates, 20° C., two days (Test Examples 3, 8); settings: Test Example 8
Experimental: (§1) Additionally, in the above formula, R represents a fungal expansion suppression rate (%), dc represents the diameter of a colony on an untreated plate, and dt represents the diameter of a colony on an chemical-treated plate.
(§2) Inhibition rate during mixed use (theoretical value)=α+((100−α)×β)/100, note that, in the formula above, α and β respectively represent the inhibition rates of the compounds during single use of the compounds.
Test and determination were performed in the same manner as in Test Example 3 except for using the penthiopyrad in place of the isopyrazam.

[2] = tested on: wheat leaf blight (Septoria tritici); test: In vitro antimicrobial activity test on PDA agar plates, 20° C., three days (Test Example 1)
Experimental: In the present test example, the antimicrobial properties of a mixed formulation of compound (1) and bixafen on wheat leaf blight (Septoria tritici) were tested.
as §1, §2

[3] = tested on: wheat damping off (Gaeumannomyces graminis); test: In vitro antimicrobial activity test on PDA agar plates, 20° C., three days (Test Example 2)
Description: as §1, §2
In the present test example, the antimicrobial properties of a mixed formulation of compound (1) and bixafen on wheat damping off (Gaeumannomyces graminis) were tested.
Meanwhile, wheat damping off was punched out from the periphery of a colony of wheat damping off using a cork borer having a diameter of 4 mm, and inoculated onto the PDA agar plates in which the chemical(s) was(were) mixed.

[4] = tested on: wheat leaf blight (Septoria tritici); test: In vitro antimicrobial activity test on PDA agar plates, 25° C., 14 days (Test Examples 4 to 7)
Experimental: as §1, §2
Testing and determination were performed in the same manner as in Test Example 4 except for using the thiophanate-methyl in place of the boscalid.
Test and determination were performed in the same manner as in Test Example 4 except for using the chlorothalonil in place of the boscalid.

[5] = tested on: gray mold disease (Botrytis cinerea); test: In vitro antimicrobial activity test on PDA agar plates, 20° C., two days (Test Examples 3, 8); settings: Test Example 3

CC(C)CC(C)c1sccc1NC(=O)c1cn(C)nc1C(F)(F)F (stereo not drawn) [Penthiopyrad, penthiopyrad]
inhibition at 0.63 ppm ([1]; Botrytis cinerea, Penthiopyrad 0.63 ppm alone, read-out: Fungal growth inhibition rate (%) Measured value): 31% | inhibition at 2.5 ppm ([1]; Botrytis cinerea, Penthiopyrad 2.50 ppm alone, read-out: Fungal growth inhibition rate (%) Measured value): 61% | inhibition at 10 ppm ([1]; Botrytis cinerea, Penthiopyrad 10.00 ppm alone, read-out: Fungal growth inhibition rate (%) Measured value): 93%

Cn1cc(C(=O)Nc2ccc(F)cc2-c2ccc(Cl)c(Cl)c2)c(C(F)F)n1 [Bixafen, bixafen]
Fungal growth inhibition rate (%) Measured value ([2]; Bixafen 0.0393 ppm alone): 0% | Fungal growth inhibition rate (%) Measured value ([2]; Bixafen 0.1575 ppm alone): 6% | Fungal growth inhibition rate (%) Measured value ([2]; Bixafen 0.63 ppm alone): 31% | Fungal growth inhibition rate (%) Measured value ([2]; Bixafen 2.5 ppm alone): 54% | Fungal growth inhibition rate (%) Measured value ([3]; Bixafen 0.0393 ppm alone): 0% | Fungal growth inhibition rate (%) Measured value ([3]; Bixafen 0.1575 ppm alone): 3% | Fungal growth inhibition rate (%) Measured value ([3]; Bixafen 0.63 ppm alone): 4% | Fungal growth inhibition rate (%) Measured value ([3]; Bixafen 2.5 ppm alone): 29%

COC(=O)NC(=S)Nc1ccccc1NC(=S)NC(=O)OC [Thiophanate-methyl, thiophanate-methyl]
inhibition at 0.01 ppm ([4]; Zymoseptoria tritici, 4TO7, Test Example 5, Thiophanate-methyl 0.010 ppm alone, read-out: Fungal growth inhibition rate (%) Measured value): 0% | inhibition at 0.039 ppm ([4]; Zymoseptoria tritici, 4TO7, Test Example 5, Thiophanate-methyl 0.039 ppm alone, read-out: Fungal growth inhibition rate (%) Measured value): 0% | inhibition at 0.156 ppm ([4]; Zymoseptoria tritici, 4TO7, Test Example 5, Thiophanate-methyl 0.156 ppm alone, read-out: Fungal growth inhibition rate (%) Measured value): 0% | inhibition at 0.625 ppm ([4]; Zymoseptoria tritici, 4TO7, Test Example 5, Thiophanate-methyl 0.625 ppm alone, read-out: Fungal growth inhibition rate (%) Measured value): 76% | inhibition at 2.5 ppm ([4]; Zymoseptoria tritici, 4TO7, Test Example 5, Thiophanate-methyl 2.5 ppm alone, read-out: Fungal growth inhibition rate (%) Measured value): 100%

CC(C)C1C2CCC1c1c(NC(=O)c3cn(C)nc3C(F)F)cccc12 (stereo not drawn) [Isopyrazam, isopyrazam]
Fungal growth inhibition rate (%) Measured value ([5]; Isopyrazam 0.0393 ppm alone): 1% | Fungal growth inhibition rate (%) Measured value ([5]; Isopyrazam 0.1575 ppm alone): 9% | Fungal growth inhibition rate (%) Measured value ([5]; Isopyrazam 0.63 ppm alone): 23% | Fungal growth inhibition rate (%) Measured value ([5]; Isopyrazam 2.5 ppm alone): 35% | Fungal growth inhibition rate (%) Measured value ([5]; Isopyrazam 10 ppm alone): 69%

N#Cc1c(Cl)c(Cl)c(Cl)c(C#N)c1Cl [Chlorothalonil, chlorothalonil]
inhibition at 0.01 ppm ([4]; Zymoseptoria tritici, 4TO7, Test Example 6, Chlorothalonil 0.010 ppm alone, read-out: Fungal growth inhibition rate (%) Measured value): 0% | inhibition at 0.039 ppm ([4]; Zymoseptoria tritici, 4TO7, Test Example 6, Chlorothalonil 0.039 ppm alone, read-out: Fungal growth inhibition rate (%) Measured value): 0% | inhibition at 0.156 ppm ([4]; Zymoseptoria tritici, 4TO7, Test Example 6, Chlorothalonil 0.156 ppm alone, read-out: Fungal growth inhibition rate (%) Measured value): 0% | inhibition at 0.625 ppm ([4]; Zymoseptoria tritici, 4TO7, Test Example 6, Chlorothalonil 0.625 ppm alone, read-out: Fungal growth inhibition rate (%) Measured value): 3% | inhibition at 2.5 ppm ([4]; Zymoseptoria tritici, 4TO7, Test Example 6, Chlorothalonil 2.5 ppm alone, read-out: Fungal growth inhibition rate (%) Measured value): 30%

COC(=O)C1(C)CCC(Cc2ccc(Cl)cc2)C1(O)Cn1cncn1 (stereo not drawn) [Compound (1), 3-(4-chlorobenzyl)-2-hydroxy-1-methyl-2-(1H-1,2,4-triazol-1-ylmethyl) cyclopentane carboxylic acid methyl]
Fungal growth inhibition rate (%) Measured value ([5]; Compound (1) 0.078 ppm alone): 4% | Fungal growth inhibition rate (%) Measured value ([4]; Test Example 4, Compound (1) 0.02 ppm alone): 0% | Fungal growth inhibition rate (%) Measured value ([4]; Test Example 5, Compound (1) 0.005 ppm alone): 23% | Fungal growth inhibition rate (%) Measured value ([4]; Test Example 6, Compound (1) 0.005 ppm alone): 81% | Fungal growth inhibition rate (%) Measured value ([4]; Test Example 7, Compound (1) 0.02 ppm alone): 7% | Fungal growth inhibition rate (%) Measured value ([2]; Compound (1) 0.005 ppm alone): 0% | Fungal growth inhibition rate (%) Measured value ([3]; Compound (1) 0.005 ppm alone): 0% | Fungal growth inhibition rate (%) Measured value ([1]; Compound (1) 0.078 ppm alone): 13%

Cn1cc(C(=O)Nc2ccccc2-c2cc(F)c(F)c(F)c2)c(C(F)F)n1 [Fluxapyroxad, fluxapyroxad]
Fungal growth inhibition rate (%) Measured value ([4]; Test Example 7, Fluxapyroxad 0.04 ppm alone): 11% | Fungal growth inhibition rate (%) Measured value ([4]; Test Example 7, Fluxapyroxad 0.16 ppm alone): 34% | Fungal growth inhibition rate (%) Measured value ([4]; Test Example 7, Fluxapyroxad 0.63 ppm alone): 74%

O=C(Nc1ccccc1-c1ccc(Cl)cc1)c1cccnc1Cl [Boscalid, boscalid]
inhibition at 0.0393 ppm ([4]; Zymoseptoria tritici, 4TO7, Test Example 4, Boscalid 0.0393 ppm alone, read-out: Fungal growth inhibition rate (%) Measured value): 0% | inhibition at 0.1575 ppm ([4]; Zymoseptoria tritici, 4TO7, Test Example 4, Boscalid 0.1575 ppm alone, read-out: Fungal growth inhibition rate (%) Measured value): 0% | inhibition at 0.63 ppm ([4]; Zymoseptoria tritici, 4TO7, Test Example 4, Boscalid 0.63 ppm alone, read-out: Fungal growth inhibition rate (%) Measured value): 31% | inhibition at 2.5 ppm ([4]; Zymoseptoria tritici, 4TO7, Test Example 4, Boscalid 2.5 ppm alone, read-out: Fungal growth inhibition rate (%) Measured value): 49% | inhibition at 10 ppm ([4]; Zymoseptoria tritici, 4TO7, Test Example 4, Boscalid 10 ppm alone, read-out: Fungal growth inhibition rate (%) Measured value): 100%
